Assays:
Septoria tritici = assay: In vivo preventive test on Septoria tritici (leaf spot on wheat); conditions: preventive spray, wheat plants, grading 24 days after contamination
Experimental: In Vivo Preventive Test on Septoria tritici (Leaf Spot on Wheat)
(§1) The active ingredients tested are prepared by homogenization in a mixture of acetone/tween/DMSO, and then diluted with water to obtain the desired active material concentration.
Wheat plants (“Scipion” variety), sown in starter cups on a 50/50 peat soil-pozzolana substrate and grown at 22° C., are treated at the 1-leaf stage (10 cm height) by spraying with the active ingredient prepared as described above. Plants, used as controls, are treated with the mixture of acetone/tween/DMSO/water not containing the active material.
After 24 hours, the plants are contaminated by spraying the leaves with an aqueous suspension of cryopreserved Septoria tritici spores (500 000 spores per ml). The contaminated wheat plants are incubated for 72 hours at 18° C. and at 100% relative humidity, and then for 21 days at 90% relative humidity.
Grading (% of efficacy) is carried out 24 days after the contamination, in comparison with the control plants.

Sphaerotheca fuliginea = assay: In vivo preventive test on Sphaerotheca fuliginea (powdery mildew on cucurbits); conditions: preventive spray, gherkin plants, grading 12 days after contamination
Experimental: In Vivo Preventive Test on Sphaerotheca fuliginea (Powdery Mildew on Cucurbits)
(§2) The active ingredients tested are prepared by homogenization in a mixture of acetone/tween/DMSO and then diluted with water to obtain the desired active material concentration.
(§3) Gherkin plants (“Vert petit de Paris” variety), sown in starter cups on a 50/50 peat soil-pozzolana substrate and grown at 24° C., are treated at the Z11 cotyledon stage by spraying with the active ingredient prepared as described above. Plants, used as controls, are treated with the mixture of acetone/tween/DMSO/water not containing the active material.
After 24 hours, the plants are contaminated by spraying the cotyledons with an aqueous suspension of Sphaerotheca fuliginea spores (100 000 spores per ml). The spores are collected from infected plants. The contaminated gherkin plants are incubated at about 20° C. and at 70-80% relative humidity.
Grading (% of efficacy) is carried out 12 days after the contamination, in comparison with the control plants.

Puccinia recondita = assay: In vivo preventive test on Puccinia recondita (brown rust on wheat); conditions: wheat, spray, graded 12 days after contamination vs control plants
Experimental: In Vivo Preventive Test on Puccinia recondita (Brown Rust on Wheat) […] Wheat plants (“Scipion” variety), sown in starter cups on a 50/50 peat soil-pozzolana substrate and grown at 22° C., are treated at the 1-leaf stage (10 cm height) by spraying with the active ingredient prepared as described above. Plants, used as controls, are treated with the mixture of acetone/tween/DMSO/water not containing the active material. After 24 hours, the plants are contaminated by spraying the leaves with an aqueous suspension of Puccinia recondita spores (100 000 spores per ml). The spores are collected from an infected plant and are suspended in water containing 2.5 ml/1 of Tween 80 at 10%. The contaminated wheat plants are incubated for 24 hours at 20° C. and at 100% relative humidity, and then for 10 days at 20° C. and at 70-80% relative humidity. Grading (% of efficacy) is carried out 12 days after the contamination, in comparison with the control plants.

[1] = log P by HPLC on reversed phase columns (EEC directive 79/831 Annex V.A8); type: physicochemical; conditions: Table 1, formula (I), HPLC/LC-MS at pH 2.7, 0.1% formic acid in water / acetonitrile, gradient 10% to 95%
Uromyces appendiculatus = assay: In vivo preventive test on Uromyces appendiculatus (bean rust); conditions: preventive spray, bean plants, grading 11 days after contamination
Experimental: In Vivo Preventive Test on Uromyces appendiculatus (Bean Rust) […] Bean plants (“Saxa” variety), sown in starter cups on a 50/50 peat soil-pozzolana substrate and grown at 24° C., are treated at the 2-leaf stage (9 cm height) by spraying with the active ingredient prepared as described above. Plants, used as controls, are treated with the mixture of acetone/tween/DMSO/water not containing the active material. After 24 hours, the plants are contaminated by spraying the leaves with an aqueous suspension of Uromyces appendiculatus spores (150 000 spores per ml). The spores are collected from infected plants and are suspended in water containing 2.5 ml/1 of Tween 80 at 10%. The contaminated bean plants are incubated for 24 hours at 20° C. and at 100% relative humidity, and then for 10 days at 20° C. and at 70-80% relative humidity. Grading (% of efficacy) is carried out 11 days after the contamination, in comparison with the control plants.

Botrytis cinerea = assay: In vivo preventive test on Botrytis cinerea (grey mould), gherkin plants; conditions: gherkin, spray, graded 4 to 5 days after contamination vs control plants
Experimental: In Vivo Preventive Test on Botrytis cinerea (Grey Mould)
as §2, §3
After 24 hours, the plants are contaminated by spraying the cotyledons with an aqueous suspension of cryopreserved Botrytis cinerea spores (50 000 spores per ml). The spores are suspended in a nutrient solution composed of 10 g/L of PDB, 50 g/L of D-Fructose, 2 g/L of NH4NO3 and 1 g/L of KH2PO4. The contaminated gherkin plants are incubated at 17° C. and at 90% relative humidity.
Grading (% of efficacy) is carried out 4 to 5 days after the contamination, in comparison with the control plants.

Alternaria brassicae = assay: In vivo preventive test on Alternaria brassicae (leaf spot on radish); conditions: spray, graded 6 days after contamination vs control plants
Experimental: In Vivo Preventive Test on Alternaria brassicae (Leaf Spot on Radish)
as §1
Radish plants (“Pernod Clair” variety), sown in starter cups on a 50/50 peat soil-pozzolana substrate and grown at 17° C., are treated at the cotyledon stage by spraying with the active ingredient prepared as described above. Plants, used as controls, are treated with the mixture of acetone/tween/DMSO/water not containing the active material.
After 24 hours, the plants are contaminated by spraying the cotyledons with an aqueous suspension of Alternaria brassicae spores (50 000 spores per ml). The spores are collected from a 15-day-old culture. The contaminated radish plants are incubated at 20° C. and at 100% relative humidity.
Grading (% of efficacy) is carried out 6 days after the contamination, in comparison with the control plants.

Row | logP^[a] [1] | SMILES | Eff. % (Septoria tritici; 500 ppm) | Eff. % (Puccinia recondita; dose 500 ppm) | Eff. % (Puccinia recondita; dose 100 ppm) | Eff. % (Uromyces appendiculatus; 500 ppm) | Eff. % (Alternaria brassicae; dose 500 ppm) | other results
1 | 3.94^[a] | CCC1(C)CC(C)c2c(NC(=O)c3cc(C)cnc3C(F)F)cccc21 (mixture of isomers) [Example 82] | – | – | 94% | – | – | Eff. % (Uromyces appendiculatus; 100 ppm): 88%; Eff. % (Botrytis cinerea; dose 100 ppm): 80%
2 | 4.11^[a] | CCC1(CC)Cc2c(NC(=O)c3cccnc3C(F)F)cccc2C1C (racemic) [Example 60] | 100% | 98% | – | 100% | 100% | Eff. % (Sphaerotheca fuliginea; 500 ppm): 100%
3 | 2.39^[a] | CCC1OC(C)(C)c2cccc(NC(=O)c3cccnc3C(F)F)c21 (racemic) [Example 77] | – | – | 98% | – | – | Eff. % (Uromyces appendiculatus; 100 ppm): 100%; Eff. % (Septoria tritici; 100 ppm): 93%; Eff. % (Sphaerotheca fuliginea; 100 ppm): 98%; Eff. % (Alternaria brassicae; dose 100 ppm): 75%
4 | 4.01^[a] | CCC1(CC)CC(C)c2c(NC(=O)c3cccnc3C(F)F)cccc21 (racemic) [Example 78] | – | – | 100% | – | – | Eff. % (Uromyces appendiculatus; 100 ppm): 100%; Eff. % (Botrytis cinerea; dose 100 ppm): 98%; Eff. % (Sphaerotheca fuliginea; 100 ppm): 98%; Eff. % (Alternaria brassicae; dose 100 ppm): 80%
5 | 4.31^[a] | CCC1(CC)CC(C)c2c(NC(=O)c3cc(C)cnc3C(F)F)cccc21 (racemic) [Example 79] | – | – | 89% | – | – | Eff. % (Botrytis cinerea; dose 100 ppm): 80%
6 | 4.72^[a] | CCC1(CC)CC(C)c2c(NC(=O)c3ccc(Cl)nc3C(F)F)cccc21 (racemic) [Example 80] | – | – | 94% | – | – | Eff. % (Uromyces appendiculatus; 100 ppm): 91%; Eff. % (Botrytis cinerea; dose 100 ppm): 70%
7 | 3.76^[a] | CC1(C)Cc2cccc(NC(=O)c3ccc(Cl)nc3C(F)F)c2C1 [Example 47] | 71% | 72% | – | – | – | –
8 | 3.06^[a] | CC1(C)Cc2cccc(NC(=O)c3cccnc3C(F)F)c2C1 [Example 49] | 86% | 100% | – | 100% | 89% | Eff. % (Sphaerotheca fuliginea; 500 ppm): 100%
9 | 4.87^[a] | CC1CC(CC(C)(C)C)c2cccc(NC(=S)c3cccnc3C(F)F)c21 (stereo not drawn) [Example 59] | 75% | 98% | – | 100% | 88% | Eff. % (Sphaerotheca fuliginea; 500 ppm): 98%
10 | 3.35^[a] | CC1c2cccc(NC(=O)c3cccnc3C(F)F)c2CC1(C)C (stereo not drawn) [Example 62] | 100% | 100% | – | 100% | 100% | Eff. % (Sphaerotheca fuliginea; 500 ppm): 98%
11 | 3.29^[a] | CC1c2c(cccc2NC(=O)c2cccnc2C(F)F)CC1(C)C (stereo not drawn) [Example 85] | – | – | 97% | – | – | Eff. % (Botrytis cinerea; dose 100 ppm): 98%; Eff. % (Septoria tritici; 100 ppm): 79%; Eff. % (Sphaerotheca fuliginea; 100 ppm): 100%
12 | 3.37^[a] | CCC1CC(C)c2c(NC(=O)c3cccnc3C(F)F)cccc21 (stereo not drawn) [Example 88] | – | – | 88% | – | – | Eff. % (Botrytis cinerea; dose 100 ppm): 89%
13 | 3.99^[a] | CCC1(CC)c2cccc(NC(=O)c3cccnc3C(F)F)c2CC1C (stereo not drawn) [Example 91] | – | – | 94% | – | – | Eff. % (Uromyces appendiculatus; 100 ppm): 100%; Eff. % (Sphaerotheca fuliginea; 100 ppm): 98%

More lines, now with the values behind:

Row | SMILES | logP^[a] [1] | Eff. % (Septoria tritici; 500 ppm) | Eff. % (Puccinia recondita; dose 500 ppm) | Eff. % (Puccinia recondita; dose 100 ppm) | Eff. % (Uromyces appendiculatus; 500 ppm) | Eff. % (Alternaria brassicae; dose 500 ppm) | other results
14 | CON=C1c2cccc(NC(=O)c3cccnc3C(F)F)c2CC1(C)C (mixture of isomers) [Example 34] | – | 100% | 93% | – | – | – | Eff. % (Sphaerotheca fuliginea; 500 ppm): 100%
15 | CCC1(CC)OC(C)c2c(NC(=O)c3cccnc3C(F)F)cccc21 (racemic) [Example 25] | 2.86^[a] | 86% | 98% | – | 100% | – | Eff. % (Botrytis cinerea; dose 500 ppm): 96%
16 | CON=C1CC(C)c2c(NC(=O)c3cccnc3C(F)F)cccc21 (racemic) [Example 30] | 2.32^[a] | 88% | 86% | – | 98% | – | –
17 | CC1CC2(CC2)c2cccc(NC(=O)c3cccnc3C(F)F)c21 (racemic) [Example 42] | 3.00^[a] | 79% | 100% | – | 100% | 83% | Eff. % (Botrytis cinerea; dose 500 ppm): 99%; Eff. % (Sphaerotheca fuliginea; 500 ppm): 89%
18 | CCCCON=C1CCc2c(NC(=O)c3cccnc3C(F)F)cccc21 [Example 6] | 3.44^[a] | – | – | – | – | 71% | –
19 | CCCON=C1CCc2c(NC(=O)c3cccnc3C(F)F)cccc21 [Example 7] | 3.00^[a] | – | – | – | 71% | 79% | –
20 | CC1CC(C)(C)c2c(C3CC3)ccc(NC(=O)c3cccnc3C(F)F)c21 (stereo not drawn) [Example 10] | 3.79^[a] | – | 100% | – | 99% | – | Eff. % (Botrytis cinerea; dose 500 ppm): 100%
21 | Cc1ccc(NC(=O)c2cccnc2C(F)F)c2c1C(C)(C)CC2C (stereo not drawn) [Example 11] | 3.41^[a] | – | 98% | – | – | – | Eff. % (Botrytis cinerea; dose 500 ppm): 99%
22 | CC1OC(C)(C)c2c(Br)ccc(NC(=O)c3cccnc3C(F)F)c21 (stereo not drawn) [Example 15] | 2.89^[a] | 83% | 86% | – | 81% | – | –
23 | O=C(Nc1cccc2c1CCC21CC1)c1cccnc1C(F)F [Example 20] | 2.78^[a] | – | 94% | – | 100% | – | Eff. % (Botrytis cinerea; dose 500 ppm): 90%
24 | Cc1cnc(C(F)F)c(C(=O)Nc2ccc(F)c3c2C(C)CC3(C)C)c1 (stereo not drawn) [Example 23] | 3.64^[a] | 71% | 94% | – | 93% | – | Eff. % (Sphaerotheca fuliginea; 500 ppm): 94%
25 | CCC1Cc2c(NC(=O)c3cc(C)cnc3C(F)F)cccc2C1(C)C (stereo not drawn) [Example 38, 2-(difluoromethyl)-N-(2-ethyl-1,1-dimethyl-2,3-dihydro-1H-inden-4-yl)-5-methylnicotinamide] | – | – | 94% | – | 100% | 80% | chromatographic logP ([1]; reversed phase HPLC columns): 4.06
26 | CC1OC(C)(C)c2cccc(NC(=O)c3c(C(F)F)ccnc3C(F)F)c21 (stereo not drawn) [Example 40] | 2.66^[a] | 71% | 81% | – | 100% | – | –

— US9376391B2, “Difluoromethyl-nicotinic-tetrahydronaphthyl carboxamides as fungicides” (BAYER CROPSCIENCE AKTIENGESELLSCHAFT, priority 2012, dated 2016)
